Where a name gives a salt, the structure may show the parent alone.
What was measured:
[1] = target: T1, Recombinant human IKKβ (residues 1-737) (Homo sapiens, UniProt O14920); assay: IKK2 assay (TR-FRET); assay type: biochemical; conditions: ATP 1 μM final, read-out: pIC50 against IKK2 (converted)
T1 construct: Recombinant human IKKβ (residues 1-737); GST (C); made in house
T1 sequence (O14920 1-737): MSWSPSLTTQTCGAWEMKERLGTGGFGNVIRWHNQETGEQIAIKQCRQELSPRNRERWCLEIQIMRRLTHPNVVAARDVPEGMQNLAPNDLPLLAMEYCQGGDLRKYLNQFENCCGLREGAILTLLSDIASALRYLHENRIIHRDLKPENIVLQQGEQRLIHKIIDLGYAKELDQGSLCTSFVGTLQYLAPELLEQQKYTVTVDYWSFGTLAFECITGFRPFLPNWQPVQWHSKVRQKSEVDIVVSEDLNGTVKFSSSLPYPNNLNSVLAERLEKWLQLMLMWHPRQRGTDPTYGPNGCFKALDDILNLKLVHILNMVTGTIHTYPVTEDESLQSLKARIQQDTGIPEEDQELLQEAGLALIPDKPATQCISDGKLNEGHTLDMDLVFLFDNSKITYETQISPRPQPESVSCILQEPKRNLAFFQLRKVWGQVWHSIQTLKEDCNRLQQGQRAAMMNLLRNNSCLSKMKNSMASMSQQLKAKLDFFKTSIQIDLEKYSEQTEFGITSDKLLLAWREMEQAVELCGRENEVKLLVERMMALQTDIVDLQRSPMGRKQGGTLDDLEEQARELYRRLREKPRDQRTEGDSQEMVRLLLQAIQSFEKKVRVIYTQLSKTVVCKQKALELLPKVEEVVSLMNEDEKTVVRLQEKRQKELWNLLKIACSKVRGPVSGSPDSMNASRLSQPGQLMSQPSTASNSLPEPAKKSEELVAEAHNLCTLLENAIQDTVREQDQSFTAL
Method in brief: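 Baculovirus-expressed C-terminal GST-tagged IKKβ (0.5-5 nM final) in HEPES pH 7.4, MgCl2, CHAPS, DTT, BSA with 1.7% DMSO; 25 nM GST-IB substrate and 1 μM ATP, 15 min at room temperature. EDTA stop; phospho-Ser32/36 detected by Eu-antibody/APC-anti-GST TR-FRET, 665/620 nm ratio.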

[2] = system: human monocyte stimulated cytokine production (TNF-α); assay: Monocyte assay (LPS-stimulated TNF-α production); assay type: cell-based; conditions: for IC50: 24 h, 200 ng/mL LPS, TNF-α by ELISA
Method: Effect of IKK-β inhibition on human monocyte stimulated cytokine production was assessed as follows: Monocytes were isolated from heparinized whole blood by Ficoll gradient, followed by purification of CD14+ cells using MACS magnetic cell separation beads. Isolated monocytes were then adhered to 96-well culture plates at 1×10^6 cells/mL in RPMI 1640 10% FBS (JRH Biosciences, Lenexa Kans.) for 2 h. Test compounds are added to the wells 30 minutes prior to stimulation with a final vehicle concentration of 0.1% DMSO. Monocytes were activated by the addition of 200 ng/mL endotoxin (LPS; E. coli serotype 026:B6)(Sigma, St. Louis, Mo.) and incubated for 24 hrs at 37 C. Cell-free supernates were analyzed by ELISA for TNF-α using Pharmingen matched pair Abs. Viability of the cells was determined by 10% trypan blue exclusion.

CCS(=O)(=O)N1CCC(c2c[nH]c3c(C(N)=O)cc(-c4cccc(CN[C@@H](CO)C(C)C)c4)cc23)CC1 [Example 18, 3-[1-(ethylsulfonyl)-4-piperidinyl]-5-[3-({[(1R)-1-(hydroxymethyl)-2-methylpropyl]amino}methyl)phenyl]-1H-indole-7-carboxamide]
IC50 [1]: ≤ 10 µM | IC50 [2]: ≤ 1.5 µM

CCS(=O)(=O)N1CCC(c2c[nH]c3c(C(N)=O)cc(-c4ccc(CN(C)C)cc4)cc23)CC1 [Example 146, 5-{4-[(dimethylamino)methyl]phenyl}-3-[1-(ethylsulfonyl)-4-piperidinyl]-1H-indole-7-carboxamide]
IC50 [1]: ≤ 10 µM | IC50 [2]: > 1 µM

CC[C@@H](C)NCc1cccc(-c2cc(C(N)=O)c3[nH]cc(C4CCN(S(=O)(=O)CC)CC4)c3c2)c1 [Example 155, 3-[1-(ethylsulfonyl)-4-piperidinyl]-5-[3-({[(1R)-1-methylpropyl]amino}methyl)phenyl]-1H-indole-7-carboxamide trifluoroacetate]
IC50 [1]: ≤ 10 µM | IC50 [2]: ≤ 1.5 µM

CCN(CC)Cc1cc(-c2cc(C(N)=O)c3[nH]cc(C4CCN(S(=O)(=O)CC)CC4)c3c2)cs1 [Example 107, 5-{5-[(diethylamino)methyl]-3-thienyl}-3-[1-(ethylsulfonyl)-4-piperidinyl]-1H-indole-7-carboxamide trifluoroacetate]
IC50 [1]: ≤ 10 µM | IC50 [2]: ≤ 1.5 µM

CCNCCc1ccc(-c2cc(C(N)=O)c3[nH]cc(C4CCN(S(=O)(=O)CC)CC4)c3c2)cc1 [Example 127, 5-{4-[2-(ethylamino)ethyl]phenyl}-3-[1-(ethylsulfonyl)-4-piperidinyl]-1H-indole-7-carboxamide]
IC50 [1]: ≤ 10 µM | IC50 [2]: ≤ 1.5 µM

CCS(=O)(=O)N1CCC(c2c[nH]c3c(C(N)=O)cc(-c4csc(CNCC(C)C)c4)cc23)CC1 [Example 105, 3-[1-(ethylsulfonyl)-4-piperidinyl]-5-(5-{[(2-methylpropyl)amino]methyl}-3-thienyl)-1H-indole-7-carboxamide trifluoroacetate]
IC50 [1]: ≤ 10 µM | IC50 [2]: ≤ 1.5 µM

CCNCc1cccc(-c2cc(C(N)=O)c3[nH]cc(C4CCN(S(=O)(=O)CC)CC4)c3c2)c1 [Example 23, 5-{3-[(ethylamino)methyl]phenyl}-3-[1-(ethylsulfonyl)-4-piperidinyl]-1H-indole-7-carboxamide]
IC50 [1]: ≤ 10 µM | IC50 [2]: ≤ 1.5 µM

CCS(=O)(=O)N1CCC(c2c[nH]c3c(C(N)=O)cc(-c4csc(CN(C)CC5CC5)c4)cc23)CC1 [Example 409, 5-(5-{[(cyclopropylmethyl)(methyl)amino]methyl}-3-thienyl)-3-[1-(ethylsulfonyl)-4-piperidinyl]-1H-indole-7-carboxamide trifluoroacetate]
IC50 [1]: ≤ 10 µM | IC50 [2]: ≤ 1.5 µM

CC[C@H](C)CNCc1cccc(-c2cc(C(N)=O)c3[nH]cc(C4CCN(S(=O)(=O)CC)CC4)c3c2)c1 [Example 310, 3-[1-(ethylsulfonyl)-4-piperidinyl]-5-[3-({[(2S)-2-methylbutyl]amino}methyl)phenyl]-1H-indole-7-carboxamide]
IC50 [1]: ≤ 10 µM | IC50 [2]: ≤ 1.5 µM

CCS(=O)(=O)N1CCC(c2c[nH]c3c(C(N)=O)cc(-c4cccc(CNC5CC5)c4)cc23)CC1 [Example 31, 5-{3-[(cyclopropylamino)methyl]phenyl}-3-[1-(ethylsulfonyl)-4-piperidinyl]-1H-indole-7-carboxamide]
IC50 [1]: ≤ 10 µM | IC50 [2]: ≤ 1.5 µM

CCS(=O)(=O)N1CCC(c2c[nH]c3c(C(N)=O)cc(-c4cc(C#N)cc(CNCC(C)C)c4)cc23)CC1 [Example 357, 5-(3-cyano-5-{[(2-methylpropyl)amino]methyl}phenyl)-3-[1-(ethylsulfonyl)-4-piperidinyl]-1H-indole-7-carboxamide trifluoroacetate]
IC50 [1]: ≤ 10 µM | IC50 [2]: ≤ 1.5 µM

CCCCNCCn1cc(-c2cc(C(N)=O)c3[nH]cc(C4CCN(S(=O)(=O)CC)CC4)c3c2)cn1 [Example 256, 5-{1-[2-(butylamino)ethyl]-1H-pyrazol-4-yl}-3-[1-(ethylsulfonyl)-4-piperidinyl]-1H-indole-7-carboxamide trifluoroacetate]
IC50 [1]: ≤ 10 µM | IC50 [2]: > 1 µM

CCS(=O)(=O)N1CCC(c2c[nH]c3c(C(N)=O)cc(-c4cccc(CCN(C)C)c4)cc23)CC1 [Example 348, 5-{3-[2-(dimethylamino)ethyl]phenyl}-3-[1-(ethylsulfonyl)-4-piperidinyl]-1H-indole-7-carboxamide trifluoroacetate]
IC50 [1]: ≤ 10 µM | IC50 [2]: ≤ 1.5 µM

CCS(=O)(=O)N1CCC(c2c[nH]c3c(C(N)=O)cc(-c4cccc(CNC(=O)C5CCN(C(C)=O)CC5)c4)cc23)CC1 [Example 364, 5-[3-({[(1-acetyl-4-piperidinyl)carbonyl]amino}methyl)phenyl]-3-[1-(ethylsulfonyl)-4-piperidinyl]-1H-indole-7-carboxamide]
IC50 [1]: ≤ 10 µM | IC50 [2]: ≤ 1.5 µM

CCS(=O)(=O)N1CCC(c2c[nH]c3c(C(N)=O)cc(-c4cccc(CCNC(=O)C5CCCCC5)c4)cc23)CC1 [Example 134, 5-(3-{2-[(cyclohexylcarbonyl)amino]ethyl}phenyl)-3-[1-(ethylsulfonyl)-4-piperidinyl]-1H-indole-7-carboxamide]
IC50 [1]: ≤ 10 µM | IC50 [2]: > 1 µM

CCN(CC)CCNCCn1cc(-c2cc(C(N)=O)c3[nH]cc(C4CCN(S(=O)(=O)CC)CC4)c3c2)cn1 [Example 258, 5-[1-(2-{[2-(diethylamino)ethyl]amino}ethyl)-1H-pyrazol-4-yl]-3-[1-(ethylsulfonyl)-4-piperidinyl]-1H-indole-7-carboxamide trifluoroacetate]
IC50 [1]: ≤ 10 µM | IC50 [2]: > 1 µM

CCS(=O)(=O)N1CCC(c2c[nH]c3c(C(N)=O)cc(-c4cc(CNCC5CC5)ccc4F)cc23)CC1 [Example 339, 5-(5-{[(cyclopropylmethyl)amino]methyl}-2-fluorophenyl)-3-[1-(ethylsulfonyl)-4-piperidinyl]-1H-indole-7-carboxamide trifluoroacetate]
IC50 [1]: ≤ 10 µM | IC50 [2]: > 1 µM

CCS(=O)(=O)N1CCC(c2c[nH]c3c(C(N)=O)cc(-c4cccc(CNS(=O)(=O)c5ccccc5)c4)cc23)CC1 [Example 379, 3-[1-(ethylsulfonyl)-4-piperidinyl]-5-(3-{[(phenylsulfonyl)amino]methyl}phenyl)-1H-indole-7-carboxamide]
IC50 [1]: ≤ 10 µM | IC50 [2]: > 1 µM

CCNCc1cncc(-c2cc(C(N)=O)c3[nH]cc(C4CCN(S(=O)(=O)CC)CC4)c3c2)c1 [Example 177, 5-{5-[(ethylamino)methyl]-3-pyridinyl}-3-[1-(ethylsulfonyl)-4-piperidinyl]-1H-indole-7-carboxamide]
IC50 [1]: ≤ 10 µM | inhibition at 0.3 µM ([2]; read-out: inhibition at 300 nM in the monocyte assay): 0 to 60%

CCC1CCCN1Cc1cc(-c2cc(C(N)=O)c3[nH]cc(C4CCN(S(=O)(=O)CC)CC4)c3c2)cs1 (stereo not drawn) [Example 92, 5-{5-[(2-ethyl-1-pyrrolidinyl)methyl]-3-thienyl}-3-[1-(ethylsulfonyl)-4-piperidinyl]-1H-indole-7-carboxamide]
IC50 [1]: ≤ 10 µM | IC50 [2]: ≤ 1.5 µM

CCS(=O)(=O)N1CCC(c2c[nH]c3c(C(N)=O)cc(-c4ccc(CNC(=O)Cc5cccs5)cc4)cc23)CC1 [Example 160, 3-[1-(ethylsulfonyl)-4-piperidinyl]-5-(4-{[(2-thienylacetyl)amino]methyl}phenyl)-1H-indole-7-carboxamide]
IC50 [1]: ≤ 10 µM | IC50 [2]: ≤ 1.5 µM

Source: patent publication US8063071B2 (GlaxoSmithKline, LLC, priority 2007, dated 2011)
